How the values were obtained:
Type in all cases: cell-based
adenosine 2a = adenosine 2a (Homo sapiens, UniProt P29274); experiment: Agonist activity against adenosine receptor subtypes, CHO cells with cAMP response element/SPAP reporter (basal cAMP); settings: ratio to EC50 of NECA; transfected CHO cells; effect on basal cAMP via SPAP
Protocol: (§1) Compounds of the invention were tested for in vitro and in vivo biological activity in accordance with the following screens: • (1) Agonist activity against adenosine 2a, adenosine 1 and adenosine 3 receptor subtypes.
(§2) Agonist selectivity of compounds against other human adenosine receptors was determined using Chinese hamster ovary (CHO) cells transfected with the gene for the relevant human adenosine receptor following a method based on that of Castanon and Spevak, 1994 . The CHO cells were also transfected with cyclic AMP response elements promoting the gene for secreted placental alkaline phosphatase (SPAP) (Wood, 1995). The effect of test compounds was determined by their effects on basal levels of cAMP (A2a) or on forskolin-enhanced cAMP (A1 and A3) as reflected by changes in levels of SPAP. EC50 values for compounds were then determined as a ratio to that of the non-selective agonist N-ethyl carboxamide adenosine (NECA).

adenosine 1 = target: T1, adenosine 1 (Homo sapiens, UniProt P30542); experiment: Agonist activity against adenosine receptor subtypes, CHO cells with cAMP response element/SPAP reporter (forskolin-enhanced cAMP); settings: ratio to EC50 of NECA; transfected CHO cells; effect on forskolin-enhanced cAMP via SPAP
T1 sequence (P30542 1-326): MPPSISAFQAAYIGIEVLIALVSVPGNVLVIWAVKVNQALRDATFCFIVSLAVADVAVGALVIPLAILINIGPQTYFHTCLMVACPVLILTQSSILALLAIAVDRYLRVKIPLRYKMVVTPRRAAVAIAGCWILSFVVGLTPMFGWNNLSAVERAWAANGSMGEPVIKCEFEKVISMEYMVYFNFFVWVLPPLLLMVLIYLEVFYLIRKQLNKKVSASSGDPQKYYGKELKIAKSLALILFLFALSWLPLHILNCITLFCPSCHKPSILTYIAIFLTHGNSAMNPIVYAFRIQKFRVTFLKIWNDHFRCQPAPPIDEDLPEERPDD
Protocol: as §1, §2

adenosine 3 = target: T2, adenosine 3 (Homo sapiens, UniProt P0DMS8); experiment: as above; settings: ratio to EC50 of NECA; transfected CHO cells; effect on forskolin-enhanced cAMP via SPAP
T2 sequence (P0DMS8 1-318): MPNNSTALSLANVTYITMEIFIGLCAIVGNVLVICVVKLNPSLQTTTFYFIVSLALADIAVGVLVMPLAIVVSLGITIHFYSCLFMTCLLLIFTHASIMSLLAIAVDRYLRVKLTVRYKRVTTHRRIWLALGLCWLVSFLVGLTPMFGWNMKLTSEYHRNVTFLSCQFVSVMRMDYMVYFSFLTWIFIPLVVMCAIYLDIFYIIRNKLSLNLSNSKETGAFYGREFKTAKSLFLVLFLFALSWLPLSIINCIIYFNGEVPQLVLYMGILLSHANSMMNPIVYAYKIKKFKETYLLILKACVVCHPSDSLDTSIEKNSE
Protocol: as §1, §2

Sequence of adenosine 2a (P29274 whole entry): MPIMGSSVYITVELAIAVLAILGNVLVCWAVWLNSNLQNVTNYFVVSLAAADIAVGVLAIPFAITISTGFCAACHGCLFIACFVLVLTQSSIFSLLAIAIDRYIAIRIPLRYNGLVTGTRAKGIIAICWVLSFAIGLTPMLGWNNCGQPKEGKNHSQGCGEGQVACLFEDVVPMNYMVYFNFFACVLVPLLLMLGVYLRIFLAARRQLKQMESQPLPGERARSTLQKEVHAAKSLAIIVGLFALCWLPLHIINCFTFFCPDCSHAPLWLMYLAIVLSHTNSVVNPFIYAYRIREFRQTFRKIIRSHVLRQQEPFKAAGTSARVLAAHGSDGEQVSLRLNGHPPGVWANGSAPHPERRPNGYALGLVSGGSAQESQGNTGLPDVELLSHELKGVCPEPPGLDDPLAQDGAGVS

SMILES | A2a (EC50 values as a ratio of that of NECA) (adenosine 2a) | A1 (EC50 values as a ratio of that of NECA) (adenosine 1) | A3 (EC50 values as a ratio of that of NECA) (adenosine 3)
CCc1nc([C@H]2O[C@@H](n3cnc4c(NCC(c5ccccc5)c5ccccc5)nc(N[C@H]5CC[C@H](N)CC5)nc43)[C@H](O)[C@@H]2O)no1.O=CO.O=CO (relative stereo) [Example 12, (2R,3R,4S,5R)-2-[2-(trans-4-Amino-cyclohexylamino)-6-(2,2-diphenyl-ethylamino)-purin-9-yl]-5-(5-ethyl-[1,2,4]oxadiazol-3-yl)-tetrahydro-furan-3,4-diol diformate] | 4.77 | >8841 | >194
CCC(CC)Nc1nc(N[C@H]2CC[C@H](N)CC2)nc2c1ncn2[C@@H]1O[C@H](c2nnc(C3CC3)o2)[C@@H](O)[C@H]1O.O=CO.O=CO (relative stereo) [Example 36, (2R,3R,4S,5S)-2-[2-(trans-4-Amino-cyclohexylamino)-6-(1-ethyl-propylamino)-purin-9-yl]-5-(5-cyclopropyl-[1,3,4]oxadiazol-2-yl)-tetrahydro-furan-3,4-diol diformate] | 26.3 | 1105.6 | >173
Cc1nnc([C@H]2O[C@@H](n3cnc4c(NCC(c5ccccc5)c5ccccc5)nc(NCCN5CCCC5)nc43)[C@H](O)[C@@H]2O)[nH]1.O=CO [Example 1, (2R,3R,4S,5R)-2-[6-(2,2-Diphenyl-ethylamino)-2-(2-pyrrolidin-1-yl-ethylamino)-purin-9-yl]-5-(5-methyl-4H-[1,2,4]triazol-3-yl)-tetrahydro-furan-3,4-diol formate] | 14.6 | >8325 | >1088
Cc1nnc([C@H]2O[C@@H](n3cnc4c(NCC(c5ccccc5)c5ccccc5)nc(N[C@H](CO)Cc5ccccc5)nc43)[C@H](O)[C@@H]2O)[nH]1.O=CO [Example 2, (2R,3R,4S,5R)-2-[6-(2,2-Diphenyl-ethylamino)-2-(1S-hydroxymethyl-2-phenyl-ethylamino)-purin-9-yl]-5-(5-methyl-4H-[1,2,4]triazol-3-yl)-tetrahydro-furan-3,4-diol formate] | 2.46 | >=7728 | >1087
Cc1nnc([C@H]2O[C@@H](n3cnc4c(NCC(c5ccccc5)c5ccccc5)nc(NCCc5cn(C)cn5)nc43)[C@H](O)[C@@H]2O)[nH]1.O=CO [Example 3, (2R,3R,4S,5R)-2-{6-(2,2-Diphenyl-ethylamino)-2-[2-(1-methyl-1H-imidazol-4-yl)-ethylamino]-purin-9-yl}-5-(5-methyl-4H-[1,2,4]triazol-3-yl)-tetrahydro-furan-3,4-diol formate] | 3.54 | >9058 | >698
Cc1nnc([C@H]2O[C@@H](n3cnc4c(NCC(c5ccccc5)c5ccccc5)nc(N[C@H]5CC[C@H](N)CC5)nc43)[C@H](O)[C@@H]2O)[nH]1.O=CO [Example 4, (2R,3R,4S,5R)-2-[2-(trans-4-Amino-cyclohexylamino)-6-(2,2-diphenyl-ethylamino)-purin-9-yl]-5-(5-methyl-4H-[1,2,4]triazol-3-yl)-tetrahydro-furan-3,4-diol formate] | 5.1 | 4686 | >1052
CCc1nnc([C@H]2O[C@@H](n3cnc4c(NCC(c5ccccc5)c5ccccc5)nc(N[C@H](CO)Cc5ccccc5)nc43)[C@H](O)[C@@H]2O)[nH]1.O=CO [Example 5, (2R,3R,4S,5R)-2-[6-(2,2-Diphenyl-ethylamino)-2-(1S-hydroxymethyl-2-phenyl-ethylamino)-purin-9-yl]-5-(5-ethyl-4H-[1,2,4]triazol-3-yl)-tetrahydro-furan-3,4-diol formate] | 1 | >=5194 | >319
CCc1nnc([C@H]2O[C@@H](n3cnc4c(NCC(c5ccccc5)c5ccccc5)nc(N[C@H]5CC[C@H](N)CC5)nc43)[C@H](O)[C@@H]2O)[nH]1.O=CO [Example 6, (2R,3R,4S,5R)-2-[2-(trans-4-Amino-cyclohexylamino)-6-(2,2-diphenyl-ethylamino)-purin-9-yl]-5-(5-ethyl-4H-[1,2,4]triazol-3-yl)-tetrahydro-furan-3,4-diol formate] | 12.3 | 6739 | >183
CCc1nnc([C@H]2O[C@@H](n3cnc4c(NCC(c5ccccc5)c5ccccc5)nc(N[C@H](CO)C(C)C)nc43)[C@H](O)[C@@H]2O)[nH]1.O=CO [Example 7, (2R,3R,4S,5R)-2-[6-(2,2-Diphenyl-ethylamino)-2-(1S-hydroxymethyl-2-methyl-propylamino)-purin-9-yl]-5-(5-ethyl-4H-[1,2,4]triazol-3-yl)-tetrahydro-furan-3,4-diol formate] | 2.94 | 5327 | >183
CCc1nnc([C@H]2O[C@@H](n3cnc4c(NCC(c5ccccc5)c5ccccc5)nc(NCCN5CCOCC5)nc43)[C@H](O)[C@@H]2O)[nH]1.O=CO [Example 8, (2R,3R,4S,5R)-2-[6-(2,2-Diphenyl-ethylamino)-2-(2-morpholin-4-yl-ethylamino)-purin-9-yl]-5-(5-ethyl-4H-[1,2,4]triazol-3-yl)-tetrahydro-furan-3,4-diol formate] | 19.4 | >10735 | >183
CCc1nnc([C@H]2O[C@@H](n3cnc4c(NCC(c5ccccc5)c5ccccc5)nc(N[C@@H]5CCNC5)nc43)[C@H](O)[C@@H]2O)[nH]1.O=CO [Example 9, (2R,3R,4S,5R)-2-[6-(2,2-Diphenyl-ethylamino)-2-(pyrrolidin-3R-ylamino)-purin-9-yl]-5-(5-ethyl-4H-[1,2,4]triazol-3-yl)-tetrahydro-furan-3,4-diol formate] | 3.25 | >6032 | >147
CC(C)c1nnc([C@H]2O[C@@H](n3cnc4c(NCC(c5ccccc5)c5ccccc5)nc(N[C@H]5CC[C@H](N)CC5)nc43)[C@H](O)[C@@H]2O)[nH]1.O=CO [Example 10, (2R,3R,4S,5R)-2-[2-(trans-4-Amino-cyclohexylamino)-6-(2,2-diphenyl-ethylamino)-purin-9-yl]-5-(5-isopropyl-4H-[1,2,4]triazol-3-yl)-tetrahydro-furan-3,4-diol formate] | 16.85 | 1453.5 | >326
CC(C)c1nnc([C@H]2O[C@@H](n3cnc4c(NCC(c5ccccc5)c5ccccc5)nc(N[C@H](CO)Cc5ccccc5)nc43)[C@H](O)[C@@H]2O)[nH]1.O=CO [Example 11, (2R,3R,4S,5R)-2-[6-(2,2-Diphenyl-ethylamino)-2-(1S-hydroxymethyl-2-phenyl-ethylamino)-purin-9-yl]-5-(5-isopropyl-4H-[1,2,4]triazol-3-yl)-tetrahydro-furan-3,4-diol formate] | 17.97 | 2202 | >257
CCc1nc([C@H]2O[C@@H](n3cnc4c(NCC(c5ccccc5)c5ccccc5)nc(NCCc5cn(C)cn5)nc43)[C@H](O)[C@@H]2O)no1.O=CO [Example 13, (2R,3R,4S,5R)-2-{6-(2,2-Diphenyl-ethylamino)-2-[2-(1-methyl-1H-imidazol-4-yl)-ethylamino]-purin-9-yl}-5-(5-ethyl-[1,2,4]oxadiazol-3-yl)-tetrahydro-furan-3,4-diol formate] | 1.29 | 6620 | >194
CCc1nc([C@H]2O[C@@H](n3cnc4c(NCC(c5ccccc5)c5ccccc5)nc(NCCN5CCCCC5)nc43)[C@H](O)[C@@H]2O)no1.O=CO [Example 14, (2R,3R,4S,5R)-2-[6-(2,2-Diphenyl-ethylamino)-2-(2-piperidin-1-yl-ethylamino)-purin-9-yl]-5-(5-ethyl-[1,2,4]oxadiazol-3-yl)-tetrahydro-furan-3,4-diol formate] | 12.86 | >=4762 | >190
